# Assay results: patent US20250177479A1, “DEPSIPEPTIDE-BASED AMPHIPHILIC BULIDING BLOCK TO INHIBIT PROTEIN-PROTEIN INTERACTIONS, NANOSTRUCTURE COMPRISED THEREOF AND USES THEREOF” (INDUSTRY-ACADEMIC COOPERATION FOUNDATION, YONSEI UNIVERSITY, priority 2023, published 2025)
# Legend:
# p53 = assay: Immunoblotting kinetic analysis of MDM2 and p53; type: cell-based, human; settings: 10 μM; HCT116 p53+/+ cells
# Experimental: The cells were harvested, washed with cold PBS, and lysed with a radio-immunoprecipitation assay (RIPA) buffer. The cell lysate was centrifuged at 4° C. and 13,000 rpm for 20 minutes, and the supernatant was collected. The protein amount of the lysate was quantified using a bicinchoninic acid (BCA) protein assay kit (Pierce Inc., USA). The supernatant of the cell lysate was loaded on 10% sodium dodecyl sulfate-polyacrylamide gel electrophoresis (SDS-PAGE) to separate proteins, which were transferred to a polyvinylidene fluoride (PVDF) membrane, and the membrane was treated with 5% skim milk in tris-buffered saline with Tween® 20 (TBS-T) buffer (room temperature), and after one hour, washed with TBS-T buffer (2×) for one minute. After treatment with primary antibodies (specific primary antibodies) (p53, MDM2, or vinculin), the membrane was incubated overnight at 4° C. The membrane was washed with TBS-T for 10 minutes (5×), treated with horseradish peroxidase (HRP)-conjugated secondary antibodies (room temperature, 1 h), and then washed with TBS-T for 10 minutes (5×) and analyzed using a LAS 3000 luminescent image analyzer (Fujifilm Co., LTD., Japan).
# HCT116 p53+/+ cells = assay: WST-8 cell viability assay in HCT116 p53+/+ cells; type: cell-based, human; settings: 0, 5, 10, 15, 20 μM, 12 to 24 hours
# Experimental: First, HCT116 p53^+/+ cells were cultured in a thermos-hygrostat incubator at 37° C., 5% CO2 in DMEM containing 10% FBS and 1% Pen-Step.
# For a WST-8 cell viability assay, the HCT116 p53+/+ cells were seeded at a density of 2×10^4 cells/well in […] culture medium in a 96-well plate and cultured for 24 hours. […] After culturing at 37° C. for 12 to 24 hours, WST-8 reagent (Abcam Inc., UK) was added to each well, and culture was performed for 30 minutes. The absorbance at […] was measured using a microplate reader (PerkinElmer Inc., USA).
# HCT116 cells = assay: In vivo anticancer effect in HCT116 xenografted mice; settings: 76.9 nmol/100 μl saline i.v., once every two days, five times; 14 days
# Experimental: Body weight and tumor volume of each group were measured every 0, 2, 4, 6, 8, 10, 12, and 14 days.
# [1] = Biodistribution of Cy5.5-labeled SdPN in xenografted mice (fluorescence, IVIS)
# Experimental: In order to verify the tumor specificity of the SdPN according to the present invention, an analysis was performed using a cancer animal model (xenograft) in which human cancer cells were cultured in immunodeficient mice. Specifically, a mixture of 50 mL of Matrigel (Corning, NY, USA) and HCT116 cells (5× 10^6 cells in 50 mL of saline) was subcutaneously injected into the hind legs of 5-week-old nu/nu male nude mice (nu/nu athymic). The tumor volume was analyzed using a caliper [tumor volume=(major axis)×(minor axis)^2/2]. […] At this time, the dose was 100 μl of saline injected at a concentration of 400 μM based on Cy5.5 (40 nmol/100 μl saline).
# Fluorescence images were obtained at various times after the intravenous injection.
# The isolated cancer tissues were treated with 4% paraformaldehyde, and their moisture content was assessed with sucrose.
# [2] = 24 hours after i.v. administration, Cy5.5-labeled
removal over time (IVIS) ([1]; 40 nmol/100 μl saline i.v.),"accumulation in cancer tissues (frozen sections) [1, 2]",Molecule,PPI inhibition action speed (p53),viability of HCT116 p53+/+ cells (cancer cell apoptotic effect) (HCT116 p53+/+ cells),cancer growth (HCT116 cells),localization to the cancer area (IVIS) ([1]; 40 nmol/100 μl saline i.v.),"accumulation in major organs and cancer tissues (ex vivo fluorescence) [1, 2]","fluorescence of tail vein blood over time (in vivo retention) ([1]; after i.v. administration, Cy5.5-labeled)"
,,COc1cc(C(=O)O)ccc1NC(=O)[C@@H]1N[C@@H](CC(C)(C)C)[C@](C#N)(c2ccc(Cl)cc2F)[C@H]1c1cccc(Cl)c1F [idasanutlin],three,higher anticancer effect than that of the SdPN (6:4) of Example 8,significantly inhibited,,,
rapidly removed over time,no significant accumulation,sulfo-cyanine 5.5 [Cy5.5],,,,failed to be specifically localized to the cancer area,significant accumulation neither in major organ tissues nor cancer tissues,completely eliminated within a short time
